Earlier results in paper PMC9921896 (Molecules, 2023).

Columns and labels:
[1] = cited from earlier work
[2] = cited from earlier work; remark: listed apart in the source
estrogenicity = details: cited from earlier work

CC(C)(c1ccc(O)cc1)c1ccc(O)cc1 [BPA, Bisphenol A]
highest dose level with no negative impact on the health ([1]; CLARITY-BPA core study): 25,000 μg kg bw^−1 day^−1
lowest-observed-adverse-effect level (LOAEL) ([1]; suggested from low-dose effects): 2.5 μg (kg bw)^−1 day^−1
new TDI (draft opinion) ([2]; EFSA draft opinion): 0.04 ng (kg bw)^−1 day^−1
t-TDI ([2]; set by EFSA in 2015): 4 μg (kg bw)^−1 day^−1

CC(C)(c1ccc(O)cc1)c1ccc(O[C@@H]2O[C@H](C(=O)O)[C@@H](O)[C@H](O)[C@H]2O)cc1 [BPA-based Glucuronide metabolite, reference compound]
estrogenicity (estrogenicity; BPA glucuronide): non-estrogenic

C=C(CC(C)(C)c1ccc(O)cc1)c1ccc(O)cc1 [MBP, 4-methyl-2,4-bis(p-hydroxyphenyl) pent-1-ene, reference compound]
estrogenicity relative to BPA (estrogenicity; metabolite formed with rat liver S9 fraction): several-thousand-fold
